Legend:
Assay type in all cases: cell-based, human
[1] = test system: CD8+ and CD4+ T cells of anti-CD19 CAR-T cell compositions; test: Intracellular polyfunctional cytokine profiles; settings: cells expanded with 200 nM PI-103 or 1 μM Compound 63; PMA/Ionomycin + Golgi Inhibitor or Golgi Inhibitor alone, 5 hours
Experimental: Separate compositions of CD4+ and CD8+ cells were isolated from three human donors, activated and transduced with a viral vector encoding an anti-CD19 CAR substantially as described in Example 2. After transduction, the CD4+ and CD8+ T cells derived from each donor were separately incubated for 8 days in the presence of a mTOR kinase inhibitor to expand T cells substantially as described in Example 2, except in the presence of 200 nM PI-103, 1 μM Compound 63, or with DMSO vehicle or media only controls. CD4+ and CD8+ T cells from each donor were then separately harvested, formulated, and cryofrozen. The cryofrozen engineered CD4+ and CD8+ T cells were thawed, washed to remove compound, and cells from the same donor were then combined at a ratio of 1:1 viable CD4+/CAR+ to viable CD8+/CAR+ T cells to produce an expanded anti-CD19 CAR-T cell composition containing CD4+ and CD8+ T cells. Functional activities of the generated anti-CD19 CAR-T cell compositions were assessed.
Intracellular cytokines, CD107a, IFN-gamma ([…]), IL-2, IL-17a, and TNF-alpha (TNFα), were assessed in co-cultured T cells that were split into two groups and further incubated for 5 hours with PMA/Ionomycin and a Golgi Inhibitor or a Golgi Inhibitor alone. The intracellular cytokine accumulation was expressed as a fold change in frequency of cytokine positive cells from media-only controls. […]

CAR-T cells = test: Expansion of CAR-T cells on CAR-specific beads for 14 days (mixed CD4+/CD8+ process); settings: CAR-T cells prepared with 2 μM PI103 or 1 μM Compound 63
Experimental: Separate compositions of CD4+ and CD8+ cells were selected from isolated PBMCs from a leukapheresis sample from the same human donor by immunoaffinity based selection, and the selected cell compositions were cryofrozen. The separate compositions of CD4+ and CD8+ T cells were subsequently thawed and mixed at a ratio of 1:1 of viable CD4+ T cells to viable CD8+ T cells. In this study, the mixed CD4+ and CD8+ cell populations were incubated in the presence of Compound 63, PI103 or no inhibitor (DMSO vehicle control) beginning at the initiation of stimulation. In more detail, the mixed CD4+ and CD8+ T cell composition was stimulated (in the presence or absence of an inhibitor, as indicated) in the presence of paramagnetic polystyrene-coated beads with attached anti-CD3 and anti-CD28 antibodies for between 18 to 30 hours, and were then transduced with a lentiviral vector encoding an anti-CD19 CAR. The CAR contained an scFv antigen-binding domain specific for CD19 (derived from FMC63), a CD28 transmembrane region, a 4-1BB costimulatory signaling region, and a CD3-zeta derived intracellular signaling domain. […]
Functional attributes of the generated CAR-T cells were assessed in a serial stimulation assay by incubation of the generated CAR-T cells antibody conjugated to beads. […] Every 3-4 days, T cells were, counted.

anti-CD19 CAR+ T cells = test: Chronic stimulation assay with anti-ID conjugated beads (14 days); settings: inhibitor present from initiation of stimulation; for primary or secondary cytolytic response: 3:1 effector:target cell ratio; for primary or secondary responses: ability of CAR-T cell compositions to produce cytokines: at thaw or after 14 day anti-ID bead stimulation, K562-CD19 1:1
Source text: Separate compositions of CD4+ and CD8+ cells were isolated from human donors, stimulated by activation with anti-CD3/anti-CD28 magnetic beads and transduced with a viral vector encoding an anti-CD19 CAR having an scFv derived from FMC63. Following cultivation under conditions to expand the cells, T cell compositions containing engineered CD4+ and CD8+ T cells from each donor were then separately harvested, formulated, and cryofrozen. The cryofrozen engineered CD4+ and CD8+ T cells were thawed and formulated at a 1:1 ratio of CD4+ and CD8+ T cells from the same donor to generate a T cell composition containing CAR+ T cells. Anti-idiotype (ID) antibody conjugated beads against the anti-CD19 CAR were incubated with cells at a 1:1 bead:cell ratio for 14 days.
Secondary response of CAR-T cells harvested at day 14 following CAR-specific stimulation with anti-ID conjugated beads (Day 14; secondary) was assessed after stimulation with K562-CD19 antigen-expressing target cells at an effector to target ratio of 1:1 (to assess cytokine levels) or 3:1 (to assess cytolytic activity). The primary response of T cells from the T cell composition that had not been incubated with the anti-ID conjugated beads also was determined by similar stimulation with antigen-expressing cells (Day 0; “primary”). To assess cytolytic activity, the target cells were labeled with NucLight Red (NLR) to permit tracking by fluorescent microscopy. Killing activity was assessed by measuring the loss of viable target cells over 72 hours, as determined by loss of fluorescent signal over time by kinetic fluorescence microscopy (using the INCUCYTE® Live Cell Analysis System, Essen Bioscience). Killing index was determined as the inverse of the area under the curve (AUC) for target fluorescence over time. Intracellular cytokine levels of IL-2 and TNF-alpha were assessed by flow cytometry in co-cultured T cells after incubation in the presence of a Golgi Inhibitor. […]
Primary response of CAR-T cell compositions at thaw (no stimulation with anti-ID conjugated beads) or secondary response of CAR-stimulated CAR-T compositions (following 14 day CAR-specific stimulation with anti-ID conjugated beads) was assessed after stimulation with antigen-expressing cells. CAR-T cell compositions were cultured 1:1 with K562-CD19 antigen-expressing cells in the presence of a Golgi Inhibitor, and polyfunctional cytokine production was assessed by flow cytometry following intracellular cytokine staining for IL-2, IFN-gamma and TNF-alpha. A polyfunctional score was determined from cumulative levels of cytokines as determined in CD8+ cells after the data were normalized by scaling within donor cohorts (FIG. 13A). […]

SMILES	frequency of polyfunctional cytokine profiles in CD8+ and CD4+ T cells vs control cells [1]	expansion after restimulation with CAR-specific beads (CAR-T cells)	primary or secondary cytolytic response (anti-CD19 CAR+ T cells)	primary or secondary responses: ability of CAR-T cell compositions to produce cytokines (anti-CD19 CAR+ T cells)
CC(C)c1ccccc1-n1c(=O)[nH]c2c(C(N)=O)nc(-c3cccc(O)c3)nc21 [Compound 63, 2-(3-Hydroxyphenyl)-9-(2-isopropylphenyl)-8-oxo-8,9-dihydro-7H-purine-6-carboxamide]	increased frequency of certain polyfunctional cytokine profiles	improved expansion after restimulation	Improvements in primary or secondary cytolytic response	improved primary or secondary responses
Oc1cccc(-c2nc(N3CCOCC3)c3oc4ncccc4c3n2)c1 [PI-103, reference compound]	increased frequency of certain polyfunctional cytokine profiles	improved expansion after restimulation	Improvements in primary or secondary cytolytic response	improved primary or secondary responses
